Where two headings read alike, the source gives them in different places.
Columns and labels:
[1] = test system: HCV replicon 1A; assay: Cell-based HCV Replicon Assay A, replicon 1A
Procedure: (§1) To measure cell-based anti-HCV activity of compounds of the present invention, two complimentary assays were employed using various replicons. In the first assay (“Replicon Assay A”), replicon cells were seeded at 2000 cells/well in 384-well 384-well flat bottom tissue culture treated clear bottom plate (Corning 3707) in the presence of the test compound. Various concentrations of test compound, typically in 10 serial dilutions, were added to the assay mixture, with the starting concentration ranging from 333.3 nM to […]. The final concentration of DMSO was 0.5%. Fetal bovine serum was 5%, in the assay media. Cells were harvested on day 3 by removing media and washing the cells with a suitable wash buffer. The cells are lysed with the addition of 1× Qiagen lysis buffer (Cat #1062731). The replicon RNA level was measured using real time PCR (TaqMan® EZ RT-PCR, Applied Biosystems 403028) with the following primers and probes: […]
(§2) Cyclophilin RNA was used as endogenous control and was amplified in the same reaction as NS5B (multiplex PCR). The real-time RT-PCR reactions were run on ABI PRISM 7900HT Sequence Detection System using the following program: 50° C. for 2 minutes, 60° C. for 30 minutes, 95° C. for 5 minutes, 40 cycles of 94° C. for 20 sec, 55° C. for 1 minutes.
(§3) The amount of HCV replicon RNA per cell is quantified using a linear regression curve for a known nanogram (ng) amount of HCV replicon total RNA. This is established by plotting the Cycle Threshold values (Ct) from the Neo probe and primer set versus the log (ng) for each HCV replicon total RNA standard. The amount of HCV RNA for each replicon sample is calculated by taking the sample's Ct value, minus the line intercept, divided by the slope of the line. Similarly, the amount of Cyclophilin mRNA per cell is also quantified using a linear regression curve for a known nanogram (ng) amount of HCV replicon total RNA. Again, this is established by plotting the Cycle Threshold values (Ct) from the Cyclophilin probe and primer set versus the log (ng) for each HCV replicon total RNA standard.
(§4) Data was obtained for various compounds of the present invention using the methods described in the Example above, and is presented in the table immediately below. Data for replicons 1A, 1AY93H and 2B were obtained using Replicon Assay A and data for replicons 1AQ30D and 1B were obtained using Replicon Assay B.

[2] = test system: HCV replicon 2B; assay: Cell-based HCV Replicon Assay A, replicon 2B
Procedure: as §1, §2, §3, §4

[3] = test system: HCV replicon 1AY93H; assay: Cell-based HCV Replicon Assay A, replicon 1AY93H
Procedure: as §1, §2, §3, §4

[4] = read-out: 1A Y93H IC50, replicon 1AY93H
[5] = Hepatitis C virus, read-out: 2B IC50 (nM), replicon 2B
[6] = Hepatitis C virus, read-out: 1A Y93H IC50 (nM), replicon 1AY93H

SMILES | IC50 [1] [nM] | IC50 ([2]; read-out: 2B IC50, replicon 2B) [nM] | IC50 [3, 4] [nM] | IC50 ([1]; Hepatitis C virus) [nM] | IC50 [2, 5] [nM] | IC50 [3, 6] [nM]
COC(=O)NC(C(=O)N1[C@@H]2C[C@@H]2C[C@H]1c1ncc(-c2ccc3c(c2)c(F)c2n3C(c3cnc(C4CC4)s3)Oc3cc(-c4cnc([C@@H]5CCCN5C(=O)[C@@H](NC(=O)OC)C(C)C)[nH]4)cc(F)c3-2)[nH]1)C1CCOC(C)(C)C1 (single isomer, unassigned) [Compound 113] | 0.002 | 0.176 | 0.678 |  |  | 
COC(=O)NC(C(=O)N1[C@@H]2C[C@@H]2C[C@H]1c1ncc(-c2ccc3c(c2)cc2n3C(c3cnc(C4CCC4)s3)Oc3cc(-c4cnc([C@@H]5CCCN5C(=O)[C@@H](NC(=O)OC)C(C)C)[nH]4)cc(C)c3-2)[nH]1)C(C)(C)F (single isomer, unassigned) [Compound 224] |  |  |  | 0.0027 | 0.204 | 0.462
COC(=O)NC(C(=O)N1[C@@H]2C[C@@H]2C[C@H]1c1ncc(-c2ccc3c(c2)cc2n3C(c3cnc(C(C)(C)C)s3)Oc3cc(-c4cnc([C@@H]5CCCN5C(=O)[C@@H](NC(=O)OC)C(C)C)[nH]4)cc(F)c3-2)[nH]1)C(C)C (single isomer, unassigned) [Compound 324] | 0.002 | 1.67 | 0.263 |  |  | 
COC(=O)NC(C(=O)N1[C@@H]2C[C@@H]2C[C@H]1c1ncc(-c2ccc3c(c2)cc2n3C(c3cnc(C4CCCC4)s3)Oc3cc(-c4cnc([C@@H]5CCCN5C(=O)[C@@H](NC(=O)OC)C(C)C)[nH]4)cc(F)c3-2)[nH]1)C(C)(C)F (single isomer, unassigned) [Compound 327] |  | 0.011 | 0.002 | 0.0012 |  | 
COC(=O)NC(C(=O)N1CCC[C@H]1c1ncc(-c2ccc3c(c2)cc2n3C(c3cnc(CC(C)C)s3)Oc3cc(-c4cnc([C@@H]5CCCN5C(=O)[C@@H](NC(=O)OC)C(C)C)[nH]4)cc(F)c3-2)[nH]1)C1CCOC(C)(C)C1 (single isomer, unassigned) [Compound 542] | 0.0014 | 0.124 | 0.495 |  |  | 
COC(=O)N[C@H](C(=O)N1CCC[C@H]1c1ncc(-c2cc(F)c3c(c2)OC(c2cnc(-c4ccc(F)cc4)s2)n2c-3cc3cc(-c4cnc([C@@H]5CCCN5C(=O)[C@@H](NC(=O)OC)C(C)C)[nH]4)ccc32)[nH]1)C(C)C (single isomer, unassigned) [Compound 32] | 0.0012 | 0.231 | 0.344 |  |  | 
COC(=O)N[C@H](C(=O)N1CCC[C@H]1c1ncc(-c2cc(F)c3c(c2)OC(c2cnc(-c4ccc(F)cc4F)s2)n2c-3cc3cc(-c4cnc([C@@H]5CCCN5C(=O)[C@@H](NC(=O)OC)C(C)C)[nH]4)ccc32)[nH]1)C(C)C (stereo partly drawn) [Compound 55] |  |  |  | 0.0012 | 0.003 | 0.0021
CCCc1ncc(C2Oc3cc(-c4cnc([C@@H]5CCCN5C(=O)[C@@H](NC(=O)OC)C(C)C)[nH]4)cc(C)c3-c3cc4cc(-c5cnc([C@@H]6CCCN6C(=O)C(NC(=O)OC)C(C)(C)F)[nH]5)ccc4n32)s1 (single isomer, unassigned) [Compound 486] |  |  |  | 0.0041 | 0.031 | 0.342
CCc1ncc(C2Oc3cc(-c4cnc([C@@H]5CCCN5C(=O)[C@@H](NC(=O)OC)C(C)C)[nH]4)cc(F)c3-c3cc4cc(-c5cnc([C@@H]6CCCN6C(=O)C(NC(=O)OC)C6C[C@@H](C)O[C@@H](C)C6)[nH]5)ccc4n32)s1 (single isomer, unassigned) [Compound 35] |  | 0.125 | 0.161 | 0.0026 |  | 
COC(=O)NC(C(=O)N1CCC[C@H]1c1ncc(-c2ccc3c(c2)cc2n3C(c3nc4c(s3)CCC4)Oc3cc(-c4cnc([C@@H]5CCCN5C(=O)[C@@H](NC(=O)OC)C(C)C)[nH]4)cc(F)c3-2)[nH]1)C1CCOC(C)(C)C1 (single isomer, unassigned) [Compound 537] |  |  |  | 0.0019 | 0.198 | 3.33
CCCc1ncc(C2Oc3cc(-c4cnc([C@@H]5CCCN5C(=O)[C@@H](NC(=O)OC)C(C)C)[nH]4)cc(C)c3-c3cc4cc(-c5cnc([C@@H]6C[C@H]7C[C@H]7N6C(=O)[C@@H](NC(=O)OC)C(C)C)[nH]5)ccc4n32)s1 (single isomer, unassigned) [Compound 205] |  | 0.57 | 2.46 | 0.006 |  | 
COC(=O)NC(C(=O)N1CCC[C@H]1c1ncc(-c2ccc3c(c2)cc2n3C(c3nc(C(F)(F)F)cs3)Oc3cc(-c4cnc([C@@H]5CCCN5C(=O)[C@@H](NC(=O)OC)C(C)C)[nH]4)cc(F)c3-2)[nH]1)C1C[C@@H](C)O[C@@H](C)C1 (single isomer, unassigned) [Compound 75] |  | 0.491 | 0.875 | 0.0022 |  | 
CCc1ncc(C2Oc3cc(-c4cnc([C@@H]5CCCN5C(=O)[C@@H](NC(=O)OC)C(C)C)[nH]4)cc(F)c3-c3cc4cc(-c5cnc([C@@H]6CCCN6C(=O)C(NC(=O)OC)C6CCOC(C)(C)C6)[nH]5)ccc4n32)s1 (single isomer, unassigned) [Compound 39] | 0.0037 | 0.004 | 0.0112 |  |  | 
COC(=O)N[C@H](C(=O)N1CCC[C@H]1c1ncc(-c2cc(F)c3c(c2)OC(c2nc4ccccc4s2)n2c-3cc3cc(-c4cnc([C@@H]5CCCN5C(=O)[C@@H](NC(=O)OC)C(C)C)[nH]4)ccc32)[nH]1)C(C)C (single isomer, unassigned) [Compound 401] |  | 0.634 |  | 0.0085 |  | 0.346
COC(=O)N[C@H](C(=O)N1CCC[C@H]1c1ncc(-c2cc(F)c3c(c2)OC(c2cnc(-c4ccncn4)s2)n2c-3cc3cc(-c4cnc([C@@H]5CCCN5C(=O)[C@@H](NC(=O)OC)C(C)C)[nH]4)ccc32)[nH]1)C(C)C (stereo partly drawn) [Compound 503] |  |  |  | 0.0022 | 0.362 | 0.149
COC(=O)N[C@H](C(=O)N1CCC[C@H]1c1ncc(-c2cc(F)c3c(c2)OC(c2cnc(-c4ccc(C)o4)s2)n2c-3cc3cc(-c4cnc([C@@H]5CCCN5C(=O)[C@@H](NC(=O)OC)C(C)C)[nH]4)ccc32)[nH]1)C(C)C (single isomer, unassigned) [Compound 413] |  | 0.173 |  | 0.0036 |  | 0.0196
COC(=O)NC(C(=O)N1CCC[C@H]1c1ncc(-c2ccc3c(c2)cc2n3C(c3cnc(-c4ccc(F)cc4)s3)Oc3cc(-c4cnc([C@@H]5CCCN5C(=O)[C@@H](NC(=O)OC)C(C)C)[nH]4)cc(F)c3-2)[nH]1)C1C[C@@H](C)O[C@@H](C)C1 (single isomer, unassigned) [Compound 80] |  | 0.047 | 0.0504 | 0.0015 |  | 
COC(=O)NC(C(=O)N1CCC[C@H]1c1ncc(-c2ccc3c(c2)cc2n3C(c3cnc(CC(C)C)s3)Oc3cc(-c4cnc([C@@H]5CCCN5C(=O)[C@@H](NC(=O)OC)C(C)C)[nH]4)cc(F)c3-2)[nH]1)C1C[C@@H](C)O[C@@H](C)C1 (single isomer, unassigned) [Compound 546] |  | 0.165 | 0.315 | 0.0014 |  | 
COC(=O)NC(C(=O)N1[C@@H]2C[C@@H]2C[C@H]1c1ncc(-c2ccc3c(c2)cc2n3C(c3cnc(C(C)(C)C)s3)Oc3cc(-c4cnc([C@@H]5CCCN5C(=O)[C@@H](NC(=O)OC)C(C)C)[nH]4)cc(F)c3-2)[nH]1)C(C)C (single isomer, unassigned) [Compound 323] |  | 0.078 | 0.0051 | 0.0032 |  | 
CCN(CC)c1ncc(C2Oc3cc(-c4cnc([C@@H]5CCCN5C(=O)[C@@H](NC(=O)OC)C(C)C)[nH]4)cc(F)c3-c3cc4cc(-c5cnc([C@@H]6CCCN6C(=O)[C@@H](NC(=O)OC)C(C)C)[nH]5)ccc4n32)s1 (mixture of isomers) [Compound 404] |  |  |  | 0.012 | 0.206 | 0.0386
